The NIST ThermoML archive (doi:10.1016/j.tca.2015.06.017)

Experiment: xn = mol fraction of the nth substance listed
Settings: Liquid, Vibrating tube method

CCC(C)Cl (stereo unspecified) [2-chlorobutane] + CCCCCCC
mass density [kg/m3]
Settings	283.15 K	293.15 K
100 kPa, x2 = 0.0524	870.08	859.09
100 kPa, x2 = 0.1018	857.33	846.5
100 kPa, x2 = 0.1968	834.23	823.7
100 kPa, x2 = 0.3006	810.89	800.7
100 kPa, x2 = 0.4029	789.62	779.7
100 kPa, x2 = 0.5017	770.58	760.98
100 kPa, x2 = 0.6008	752.78	743.44
100 kPa, x2 = 0.7023	735.82	726.75
100 kPa, x2 = 0.7977	720.94	712.09
100 kPa, x2 = 0.8986	706.28	697.66
100 kPa, x2 = 0.952	698.95	690.45
2000 kPa, x2 = 0.0524	872.12	861.28
2000 kPa, x2 = 0.1018	859.33	848.65
2000 kPa, x2 = 0.1968	836.28	825.79
2000 kPa, x2 = 0.3006	812.93	802.72
2000 kPa, x2 = 0.4029	791.64	781.78
2000 kPa, x2 = 0.5017	772.59	763.02
2000 kPa, x2 = 0.6008	754.76	745.47
2000 kPa, x2 = 0.7023	737.76	728.77
2000 kPa, x2 = 0.7977	722.86	714.07
2000 kPa, x2 = 0.8986	708.14	699.64
2000 kPa, x2 = 0.952	700.89	692.42
5000 kPa, x2 = 0.0524	875.14	864.55
5000 kPa, x2 = 0.1018	862.34	851.88
5000 kPa, x2 = 0.1968	839.19	828.97
5000 kPa, x2 = 0.3006	815.75	805.92
5000 kPa, x2 = 0.4029	794.46	784.93
5000 kPa, x2 = 0.5017	775.35	766.08
5000 kPa, x2 = 0.6008	757.49	748.48
5000 kPa, x2 = 0.7023	740.41	731.73
5000 kPa, x2 = 0.7977	725.51	716.99
5000 kPa, x2 = 0.8986	710.74	702.52
5000 kPa, x2 = 0.952	703.44	695.28
7000 kPa, x2 = 0.0524	877.15	866.63
7000 kPa, x2 = 0.1018	864.31	853.99
7000 kPa, x2 = 0.1968	841.13	831.06
7000 kPa, x2 = 0.3006	817.66	807.98
7000 kPa, x2 = 0.4029	796.31	786.88
7000 kPa, x2 = 0.5017	777.21	768.04
7000 kPa, x2 = 0.6008	759.32	750.4
7000 kPa, x2 = 0.7023	742.22	733.58
7000 kPa, x2 = 0.7977	727.32	718.82
7000 kPa, x2 = 0.8986	712.5	704.3
7000 kPa, x2 = 0.952	705.2	697.05
10000 kPa, x2 = 0.0524	880.01	869.74
10000 kPa, x2 = 0.1018	867.16	857.1
10000 kPa, x2 = 0.1968	844.01	834.15
10000 kPa, x2 = 0.3006	820.49	810.94
10000 kPa, x2 = 0.4029	799.08	789.81
10000 kPa, x2 = 0.5017	779.9	770.91
10000 kPa, x2 = 0.6008	761.96	753.22
10000 kPa, x2 = 0.7023	744.79	736.37
10000 kPa, x2 = 0.7977	729.85	721.59
10000 kPa, x2 = 0.8986	714.98	707.02
10000 kPa, x2 = 0.952	707.64	699.74
20000 kPa, x2 = 0.0524	889.1	879.38
20000 kPa, x2 = 0.1018	876.16	866.54
20000 kPa, x2 = 0.1968	852.83	843.5
20000 kPa, x2 = 0.3006	829.21	820.12
20000 kPa, x2 = 0.4029	807.66	798.87
20000 kPa, x2 = 0.5017	788.35	–
20000 kPa, x2 = 0.6008	770.29	–
20000 kPa, x2 = 0.7023	753.01	–
20000 kPa, x2 = 0.7977	737.95	–
20000 kPa, x2 = 0.8986	722.98	–
20000 kPa, x2 = 0.952	715.57	–
30000 kPa, x2 = 0.0524	897.39	–
30000 kPa, x2 = 0.1018	884.45	–
30000 kPa, x2 = 0.1968	860.93	–
30000 kPa, x2 = 0.3006	837.18	–
30000 kPa, x2 = 0.4029	815.5	–
30000 kPa, x2 = 0.5017	796.06	–
30000 kPa, x2 = 0.6008	777.85	–
30000 kPa, x2 = 0.7023	760.42	–
30000 kPa, x2 = 0.7977	745.22	–
30000 kPa, x2 = 0.8986	730.14	–
30000 kPa, x2 = 0.952	722.65	–
40000 kPa, x2 = 0.0524	905.09	–
40000 kPa, x2 = 0.1018	892.06	–
40000 kPa, x2 = 0.1968	868.43	–
40000 kPa, x2 = 0.3006	844.52	–
40000 kPa, x2 = 0.4029	822.78	–
40000 kPa, x2 = 0.5017	803.2	–
40000 kPa, x2 = 0.6008	784.86	–
40000 kPa, x2 = 0.7023	767.33	–
40000 kPa, x2 = 0.7977	751.95	–
40000 kPa, x2 = 0.8986	736.77	–
40000 kPa, x2 = 0.952	729.23	–
50000 kPa, x2 = 0.0524	912.23	–
50000 kPa, x2 = 0.1018	899.1	–
50000 kPa, x2 = 0.1968	875.41	–
50000 kPa, x2 = 0.3006	851.37	–
50000 kPa, x2 = 0.4029	829.44	–
50000 kPa, x2 = 0.5017	809.74	–
50000 kPa, x2 = 0.6008	791.3	–
50000 kPa, x2 = 0.7023	773.63	–
50000 kPa, x2 = 0.7977	758.16	–
50000 kPa, x2 = 0.8986	742.88	–
50000 kPa, x2 = 0.952	735.27	–
60000 kPa, x2 = 0.0524	918.92	–
60000 kPa, x2 = 0.1018	905.75	–
60000 kPa, x2 = 0.1968	881.9	–
60000 kPa, x2 = 0.3006	857.83	–
60000 kPa, x2 = 0.4029	835.76	–
60000 kPa, x2 = 0.5017	816	–
60000 kPa, x2 = 0.6008	797.44	–
60000 kPa, x2 = 0.7023	779.67	–
60000 kPa, x2 = 0.7977	764.09	–
60000 kPa, x2 = 0.8986	748.68	–
60000 kPa, x2 = 0.952	741.04	–
65000 kPa, x2 = 0.0524	922.13	–
65000 kPa, x2 = 0.1018	908.95	–
65000 kPa, x2 = 0.1968	885.12	–
65000 kPa, x2 = 0.3006	860.95	–
65000 kPa, x2 = 0.4029	838.88	–
65000 kPa, x2 = 0.5017	819	–
65000 kPa, x2 = 0.6008	800.38	–
65000 kPa, x2 = 0.7023	782.58	–
65000 kPa, x2 = 0.7977	766.97	–
65000 kPa, x2 = 0.8986	751.48	–
65000 kPa, x2 = 0.952	743.76	–
